Reference: ChEMBL document CHEMBL1765070, “Structure-based design of potent and selective 3-phosphoinositide-dependent kinase-1 (PDK1) inhibitors” (J Med Chem, 2011)

What was measured:
[1] = biological target: T1, TGF-beta receptor type-1 (Homo sapiens, UniProt P36897); experiment: Inhibition of ALK5; settings: read-out: pIC50 (converted)
T1 sequence (P36897 whole entry): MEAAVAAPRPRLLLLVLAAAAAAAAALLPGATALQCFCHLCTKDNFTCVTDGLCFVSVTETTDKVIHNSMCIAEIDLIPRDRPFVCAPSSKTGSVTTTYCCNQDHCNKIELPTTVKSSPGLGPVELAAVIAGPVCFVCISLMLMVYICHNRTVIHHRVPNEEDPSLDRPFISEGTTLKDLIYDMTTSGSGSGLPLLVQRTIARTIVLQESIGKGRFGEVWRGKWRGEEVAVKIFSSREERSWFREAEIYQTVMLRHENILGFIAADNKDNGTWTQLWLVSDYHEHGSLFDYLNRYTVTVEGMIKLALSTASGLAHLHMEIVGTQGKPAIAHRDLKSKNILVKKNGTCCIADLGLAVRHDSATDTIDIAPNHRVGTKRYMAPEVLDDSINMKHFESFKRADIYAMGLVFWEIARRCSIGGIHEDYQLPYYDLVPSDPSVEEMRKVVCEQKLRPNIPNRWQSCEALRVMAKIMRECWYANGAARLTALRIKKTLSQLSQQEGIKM

[2] = biological target: T2, 3-phosphoinositide-dependent protein kinase 1 (Homo sapiens, UniProt O15530); experiment: Inhibition of PDK1-mediated RSK phosphorylation at Ser221 residue in human PC3 cells by ELISA; format: cell-based, PC-3
T2 sequence (O15530 whole entry): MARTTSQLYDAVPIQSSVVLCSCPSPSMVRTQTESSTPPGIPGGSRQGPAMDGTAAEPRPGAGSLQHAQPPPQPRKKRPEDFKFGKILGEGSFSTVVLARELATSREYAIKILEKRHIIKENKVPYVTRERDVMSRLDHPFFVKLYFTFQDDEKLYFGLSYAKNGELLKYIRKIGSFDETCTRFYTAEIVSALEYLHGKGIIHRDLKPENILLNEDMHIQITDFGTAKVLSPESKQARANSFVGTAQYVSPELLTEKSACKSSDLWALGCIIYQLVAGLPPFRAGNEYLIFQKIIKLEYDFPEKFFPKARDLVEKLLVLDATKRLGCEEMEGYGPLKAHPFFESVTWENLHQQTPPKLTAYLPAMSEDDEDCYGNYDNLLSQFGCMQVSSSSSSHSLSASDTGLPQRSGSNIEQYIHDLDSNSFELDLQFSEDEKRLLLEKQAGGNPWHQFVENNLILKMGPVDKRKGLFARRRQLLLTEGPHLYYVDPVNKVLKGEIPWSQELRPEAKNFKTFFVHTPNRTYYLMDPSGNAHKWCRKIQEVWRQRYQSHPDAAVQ

[3] = biological target: T3, Aurora kinase A (Homo sapiens, UniProt O14965); experiment: Inhibition of aurora A
T3 sequence (O14965 whole entry): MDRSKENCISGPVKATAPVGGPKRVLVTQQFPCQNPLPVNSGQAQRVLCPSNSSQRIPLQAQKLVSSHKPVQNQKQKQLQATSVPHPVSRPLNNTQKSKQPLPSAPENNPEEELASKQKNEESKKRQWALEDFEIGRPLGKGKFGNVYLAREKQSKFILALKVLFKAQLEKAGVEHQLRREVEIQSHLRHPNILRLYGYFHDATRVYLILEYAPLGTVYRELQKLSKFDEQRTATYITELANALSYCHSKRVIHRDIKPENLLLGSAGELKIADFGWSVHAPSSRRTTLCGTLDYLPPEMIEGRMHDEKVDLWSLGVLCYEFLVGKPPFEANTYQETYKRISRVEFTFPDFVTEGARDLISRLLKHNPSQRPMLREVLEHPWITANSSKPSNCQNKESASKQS

[4] = biological target: Aurora kinase B (Homo sapiens, UniProt Q96GD4); experiment: Inhibition of aurora B
[5] = biological target: T2, 3-phosphoinositide-dependent protein kinase 1; experiment: Inhibition of PDK1-mediated AKT phosphorylation at Thr308 residue in human PC3 cells by ELISA; format: cell-based, PC-3
[6] = biological target: Rho-associated protein kinase 1 (Homo sapiens, UniProt Q13464); experiment: Inhibition of ROCK1
[7] = biological target: T2, 3-phosphoinositide-dependent protein kinase 1; experiment: Inhibition of PDK1
[8] = system: HEL; experiment: Antiproliferative activity against human HEL 92.1.7 cells; format: functional, cell-based
[9] = system: OCI-AML2; experiment: Antiproliferative activity against human OCI-AML2 cells; format: functional, cell-based
[10] = Antiproliferative activity against human F-36P cells; format: functional, cell-based
[11] = Antiproliferative activity against human OCI-AML3 cells; format: functional, cell-based; settings: OCI-AML-3
[12] = system: K562; experiment: Antiproliferative activity against human K562 cells; format: functional, cell-based

Aurora kinase B, sequence (Q96GD4 whole entry): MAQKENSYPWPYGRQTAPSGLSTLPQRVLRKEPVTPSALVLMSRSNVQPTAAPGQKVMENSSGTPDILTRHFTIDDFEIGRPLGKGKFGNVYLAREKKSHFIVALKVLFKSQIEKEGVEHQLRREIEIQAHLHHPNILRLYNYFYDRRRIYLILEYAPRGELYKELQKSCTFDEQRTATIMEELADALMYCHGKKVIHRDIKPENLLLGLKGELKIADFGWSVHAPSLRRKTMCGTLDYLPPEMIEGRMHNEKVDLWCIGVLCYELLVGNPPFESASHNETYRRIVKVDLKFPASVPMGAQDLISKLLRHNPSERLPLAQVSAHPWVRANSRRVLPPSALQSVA
Rho-associated protein kinase 1, sequence (Q13464 whole entry): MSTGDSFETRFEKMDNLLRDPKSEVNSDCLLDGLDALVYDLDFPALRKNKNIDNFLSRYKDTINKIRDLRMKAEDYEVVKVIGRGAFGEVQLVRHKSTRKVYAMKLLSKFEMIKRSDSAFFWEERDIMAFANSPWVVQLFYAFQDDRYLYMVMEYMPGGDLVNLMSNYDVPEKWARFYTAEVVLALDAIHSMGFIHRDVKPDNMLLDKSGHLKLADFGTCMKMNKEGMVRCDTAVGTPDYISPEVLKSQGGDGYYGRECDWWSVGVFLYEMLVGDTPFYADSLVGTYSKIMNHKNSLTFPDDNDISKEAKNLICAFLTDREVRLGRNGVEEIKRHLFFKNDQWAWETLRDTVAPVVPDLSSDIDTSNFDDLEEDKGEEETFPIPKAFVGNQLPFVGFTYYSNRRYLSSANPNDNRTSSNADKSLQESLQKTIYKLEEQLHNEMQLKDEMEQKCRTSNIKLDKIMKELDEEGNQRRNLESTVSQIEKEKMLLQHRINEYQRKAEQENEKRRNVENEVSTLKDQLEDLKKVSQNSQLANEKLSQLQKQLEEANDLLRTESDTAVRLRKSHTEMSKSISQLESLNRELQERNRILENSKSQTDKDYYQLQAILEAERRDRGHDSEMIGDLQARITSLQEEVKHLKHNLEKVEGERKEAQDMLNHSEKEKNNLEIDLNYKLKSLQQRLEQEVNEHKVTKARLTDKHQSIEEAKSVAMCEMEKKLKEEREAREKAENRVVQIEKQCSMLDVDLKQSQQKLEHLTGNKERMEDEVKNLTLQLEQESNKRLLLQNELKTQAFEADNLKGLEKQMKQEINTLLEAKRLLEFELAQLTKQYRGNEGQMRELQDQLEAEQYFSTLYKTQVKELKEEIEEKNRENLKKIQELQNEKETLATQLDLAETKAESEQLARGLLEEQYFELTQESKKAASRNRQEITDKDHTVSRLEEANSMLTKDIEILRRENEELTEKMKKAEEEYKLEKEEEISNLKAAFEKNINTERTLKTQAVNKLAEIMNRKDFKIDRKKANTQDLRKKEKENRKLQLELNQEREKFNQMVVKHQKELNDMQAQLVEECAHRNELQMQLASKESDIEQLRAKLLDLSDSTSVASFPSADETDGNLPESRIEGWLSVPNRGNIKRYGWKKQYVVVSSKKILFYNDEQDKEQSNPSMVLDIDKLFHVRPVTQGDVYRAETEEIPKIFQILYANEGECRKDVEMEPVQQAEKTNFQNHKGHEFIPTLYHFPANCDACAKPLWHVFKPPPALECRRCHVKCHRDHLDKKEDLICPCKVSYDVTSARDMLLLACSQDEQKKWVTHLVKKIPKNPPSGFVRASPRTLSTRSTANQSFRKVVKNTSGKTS

| Structure (SMILES) | IC50 [1] [µM] | IC50 [2] [µM] | IC50 [3] [µM] | IC50 [4] [µM] | IC50 [5] [µM] | IC50 [6] [µM] | IC50 [7] [µM] | IC50 [8] [µM] | IC50 [9] [µM] | IC50 [10] [µM] | IC50 [11] [µM] | IC50 [12] [µM] |
| --- | --- | --- | --- | --- | --- | --- | --- | --- | --- | --- | --- | --- |
| CC[C@@H]1CO[C@H](C(=O)Nc2ccccc2)CN1c1cc(-c2ccc3c(N)n[nH]c3c2)nc(NC)n1 | > 10 | 0.088 | 7.94 | 1.58 | 0.057 | 3.16 | 0.00316 | – | – | – | – | – |
| CNc1nc(-c2ccc3c(N)n[nH]c3c2)cc(N2C[C@@H](C(=O)Nc3ccccc3)CC[C@H]2C)n1 | > 10 | 0.655 | > 10 | 2 | 0.165 | 3.16 | 0.00158 | 12 | 0.58 | 0.46 | 0.65 | 8 |
| C[C@@H]1C[C@@H](NC(=O)OC(C)(C)C)CN(c2cc(-c3ccc4c(N)[nH]nc4c3)nc(N)n2)C1 | > 10 | – | 0.398 | 1.58 | – | > 10 | – | 18 | 0.69 | 0.82 | 0.4 | 24 |
| C[C@@H]1C[C@@H](N(C)C(=O)OC(C)(C)C)CN(c2cc(-c3ccc4c(N)n[nH]c4c3)nc(N)n2)C1 | > 10 | 0.019 | 0.126 | 0.251 | 0.009 | > 10 | 0.000794 | 18 | 0.38 | 0.19 | 0.24 | 17 |
